Target: T1, human PPARα (Homo sapiens, UniProt Q07869)
T1 construct: expressed in transfected cells; host or cells: Cos-7 cells (ATCC, CRL-1651)
T1 sequence (Q07869 239-466 limits assumed): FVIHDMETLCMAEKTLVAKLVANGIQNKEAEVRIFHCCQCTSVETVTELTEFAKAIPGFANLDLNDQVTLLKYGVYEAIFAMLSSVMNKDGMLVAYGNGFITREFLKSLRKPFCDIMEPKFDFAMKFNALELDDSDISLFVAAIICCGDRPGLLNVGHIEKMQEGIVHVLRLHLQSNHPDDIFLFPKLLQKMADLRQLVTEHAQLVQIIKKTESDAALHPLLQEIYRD
Assay: Reporter gene transactivation, hPPAR-GAL4 alpha
Assay type: cell-based
Settings: transfected Cos-7 cells, Gal-4 luciferase reporter, 24 hours treatment

Structure (SMILES) | EC50 [µM]
CCCCn1c(=O)c(OCCc2ccccc2OC(C)(C)C(=O)OCC)nn(C)c1=O [Example 1, Ethyl 2-{2-[2-(4-butyl-2-methyl-3,5-dioxo-2,3,4,5-tetrahydro-[1,2,4]triazin-6-yloxy)-ethyl]-phenoxy}-2-methyl-propionate] | 3 to 10
CCOC(=O)C(C)(C)Oc1cccc(CCOc2nn(C)c(=O)n(CCCC(F)(F)F)c2=O)c1 [Example 3, Ethyl 2-methyl-2-(3-{2-[2-methyl-3,5-dioxo-4-(4,4,4-trifluoro-butyl)-2,3,4,5-tetrahydro-[1,2,4]triazin-6-yloxy]-ethyl}-phenoxy)-propionate] | ~3
CCOC(=O)C(C)(C)Oc1cccc(CCCOc2nn(CCCC(F)(F)F)c(=O)n(C)c2=O)c1 [Example 4, Ethyl 2-methyl-2-(3-{3-[4-methyl-3,5-dioxo-2-(4,4,4-trifluoro-butyl)-2,3,4,5-tetrahydro-[1,2,4]triazin-6-yloxy]-propyl}-phenoxy)-propionate] | > 10
CCOC(=O)C(C)(C)Oc1cccc(CCCOc2nn(C)c(=O)n(CCCC(F)(F)F)c2=O)c1 [Example 6, Ethyl 2-methyl-2-(3-{3-[2-methyl-3,5-dioxo-4-(4,4,4-trifluoro-butyl)-2,3,4,5-tetrahydro-[1,2,4]triazin-6-yloxy]-propyl}-phenoxy)-propionate] | ~0.3
CCOC(=O)C(C)(C)Oc1ccc(COc2nn(C)c(=O)n(CCCC(F)(F)F)c2=O)cc1 [Example 21, Ethyl 2-methyl-2-{4-[2-methyl-3,5-dioxo-4-(4,4,4-trifluoro-butyl)-2,3,4,5-tetrahydro-[1,2,4]triazin-6-yloxymethyl]-phenoxy}-propionate] | 3 to 10
CCCCCCCn1c(=O)c(OCc2ccc(OC(C)(C)C(=O)OCC)cc2)nn(CCCC(F)(F)F)c1=O [Example 23, Ethyl 2-{4-[4-heptyl-3,5-dioxo-2-(4,4,4-trifluoro-butyl)-2,3,4,5-tetrahydro-[1,2,4]triazin-6-yloxymethyl]-phenoxy}-2-methyl-propionate] | 1
CCOC(=O)C(C)(C)Oc1ccc(CCOc2nn(CCCC(F)(F)F)c(=O)n(C)c2=O)cc1 [Example 24, Ethyl 2-methyl-2-(4-{2-[4-methyl-3,5-dioxo-2-(4,4,4-trifluoro-butyl)-2,3,4,5-tetrahydro-[1,2,4]triazin-6-yloxy]-ethyl}-phenoxy)-propionate] | > 10
CCCCCCCn1c(=O)c(OCCc2ccc(OC(C)(C)C(=O)OCC)cc2)nn(C)c1=O [Example 26, Ethyl 2-{4-[2-(4-heptyl-2-methyl-3,5-dioxo-2,3,4,5-tetrahydro-[1,2,4]triazin-6-yloxy)-ethyl]-phenoxy}-2-methyl-propionate] | > 10
CCOC(=O)C(C)(C)Oc1ccc(CCCCOc2nn(CCCC(F)(F)F)c(=O)n(C)c2=O)cc1 [Example 28, Ethyl 2-methyl-2-(4-{4-[4-methyl-3,5-dioxo-2-(4,4,4-trifluoro-butyl)-2,3,4,5-tetrahydro-[1,2,4]triazin-6-yloxy]-butyl}-phenoxy)-propionate] | ~10
CCCCCCCn1nc(OCCCc2cccc(SC(C)(C)C(=O)OCC)c2)c(=O)n(C)c1=O [Example 32, Ethyl 2-{3-[3-(2-heptyl-4-methyl-3,5-dioxo-2,3,4,5-tetrahydro-[1,2,4]triazin-6-yloxy)-propyl]-phenylsulfanyl}-2-methyl-propionate] | 1 to 3
CCOC(=O)C(C)(C)Oc1ccc(OCCNc2nn(CCCC3CCCCC3)c(=O)n(CCCC3CCCCC3)c2=O)cc1 [Example 43, Ethyl 2-(4-{2-[2,4-bis-(3-cyclohexylpropyl)-3,5-dioxo-2,3,4,5-tetrahydro-[1,2,4]triazin-6-ylamino]-ethoxy}-phenoxy)-2-methyl-propionate] | ~3
CCCCCCCN(CCCCOc1cccc(SC(C)(C)C(=O)OCC)c1)c1nn(C)c(=O)n(C)c1=O [Example 54, Ethyl 2-(3-{4-[(2,4-Dimethyl-3,5-dioxo-2,3,4,5-tetrahydro-[1,2,4]triazin-6-yl)-heptyl-amino]-butoxy}-phenylsulfanyl)-2-methyl-propionate] | > 10
CCOC(=O)C(C)(C)Oc1ccccc1CCNc1nn(CCCC(F)(F)F)c(=O)n(CCCC(F)(F)F)c1=O [Example 55, Ethyl 2-(2-{2-[3,5-Dioxo-2,4-bis-(4,4,4-trifluoro-butyl)-2,3,4,5-tetrahydro-[1,2,4]triazin-6-ylamino]-ethyl}-phenoxy)-2-methyl-propionate] | > 10
CCOC(=O)C(C)(C)Oc1cccc(CCNc2nn(C)c(=O)n(CCCC(F)(F)F)c2=O)c1 [Example 58, Ethyl 2-methyl-2-(3-{2-[2-methyl-3,5-dioxo-4-(4,4,4-trifluoro-butyl)-2,3,4,5-tetrahydro-[1,2,4]triazin-6-ylamino]-ethyl}-phenoxy)-propionate] | > 10

Further lines, results first:

EC50 [µM] | Structure (SMILES)
> 10 | CCCCCCCn1c(=O)c(NCCc2cccc(OC(C)(C)C(=O)OCC)c2)nn(CCCC(F)(F)F)c1=O [Example 60, Ethyl 2-(3-{2-[4-heptyl-3,5-dioxo-2-(4,4,4-trifluoro-butyl)-2,3,4,5-tetrahydro-[1,2,4]triazin-6-ylamino]-ethyl}-phenoxy)-2-methyl-propionate]
~3 | CCCCCCCn1c(=O)c(NCCc2cccc(SC(C)(C)C(=O)OCC)c2)nn(C)c1=O [Example 61, Ethyl 2-{3-[2-(4-heptyl-2-methyl-3,5-dioxo-2,3,4,5-tetrahydro-[1,2,4]triazin-6-ylamino)-ethyl]-phenylsulfanyl}-2-methyl-propionate]
> 10 | CCOC(=O)C(C)(C)Oc1cccc(CCCNc2nn(CCCC(F)(F)F)c(=O)n(C)c2=O)c1 [Example 62, Ethyl 2-methyl-2-(3-{3-[4-methyl-3,5-dioxo-2-(4,4,4-trifluoro-butyl)-2,3,4,5-tetrahydro-[1,2,4]triazin-6-ylamino]-propyl}-phenoxy)-propionate]
~1 | CCOC(=O)C(C)(C)Oc1cccc(CCCNc2nn(CCCC(F)(F)F)c(=O)n(Cc3ccccc3)c2=O)c1 [Example 71, Ethyl 2-(3-{3-[4-benzyl-3,5-dioxo-2-(4,4,4-trifluoro-butyl)-2,3,4,5-tetrahydro-[1,2,4]triazin-6-ylamino]-propyl}-phenoxy)-2-methyl-propionate]
> 10 | Cn1nc(NCCCCc2cccc(OC(C)(C)C(=O)OC(C)(C)C)c2)c(=O)n(CCCC(F)(F)F)c1=O [Example 78, Tert-butyl 2-methyl-2-(3-{4-[2-methyl-3,5-dioxo-4-(4,4,4-trifluoro-butyl)-2,3,4,5-tetrahydro-[1,2,4]triazin-6-ylamino]-butyl}-phenoxy)-propionate]
> 10 | CCCCCCCn1nc(NCCCCc2cccc(OC(C)(C)C(=O)OC(C)(C)C)c2)c(=O)n(CCCC(F)(F)F)c1=O [Example 83, Tert-butyl 2-(3-{4-[2-heptyl-3,5-dioxo-4-(4,4,4-trifluoro-butyl)-2,3,4,5-tetrahydro-[1,2,4]triazin-6-ylamino]-butyl}-phenoxy)-2-methyl-propionate]
> 10 | CCOC(=O)C(C)(C)Sc1cccc(CCCCNc2nn(CCCC(F)(F)F)c(=O)n(C)c2=O)c1 [Example 93, Ethyl 2-methyl-2-(3-{4-[4-methyl-3,5-dioxo-2-(4,4,4-trifluoro-butyl)-2,3,4,5-tetrahydro-[1,2,4]triazin-6-ylamino]-butyl}-phenylsulfanyl)-propionate]
1 to 3 | CCCCCCCn1c(=O)c(NCCCCc2cccc(SC(C)(C)C(=O)OCC)c2)nn(CCCC(F)(F)F)c1=O [Example 97, Ethyl 2-(3-{4-[4-heptyl-3,5-dioxo-2-(4,4,4-trifluoro-butyl)-2,3,4,5-tetrahydro-[1,2,4]triazin-6-ylamino]-butyl}-phenylsulfanyl)-2-methyl-propionate]
> 10 | CCCCCCCn1nc(NCCCCc2cccc(SC(C)(C)C(=O)OCC)c2)c(=O)n(CCCCCCC)c1=O [Example 98, Ethyl 2-{3-[4-(2,4-diheptyl-3,5-dioxo-2,3,4,5-tetrahydro-[1,2,4]triazin-6-ylamino)-butyl]-phenylsulfanyl}-2-methyl-propionate]
1 to 3 | CCCCCCCn1nc(NCCCCc2cccc(SC(C)(C)C(=O)OCC)c2)c(=O)n(Cc2ccccc2)c1=O [Example 101, Ethyl 2-{3-[4-(4-benzyl-2-heptyl-3,5-dioxo-2,3,4,5-tetrahydro-[1,2,4]triazin-6-ylamino)-butyl]-phenylsulfanyl}-2-methyl-propionate]
> 10 | CCOC(=O)C(C)(C)Oc1ccc(CCNc2nn(CCCC(F)(F)F)c(=O)n(C)c2=O)cc1 [Example 102, Ethyl 2-methyl-2-(4-{2-[4-methyl-3,5-dioxo-2-(4,4,4-trifluoro-butyl)-2,3,4,5-tetrahydro-[1,2,4]triazin-6-ylamino]-ethyl}-phenoxy)-propionate]
~1 | CCCCCCCn1c(=O)c(NCCc2ccc(OC(C)(C)C(=O)OCC)cc2)nn(CCCC(F)(F)F)c1=O [Example 107, Ethyl 2-(4-{2-[4-heptyl-3,5-dioxo-2-(4,4,4-trifluoro-butyl)-2,3,4,5-tetrahydro-[1,2,4]triazin-6-ylamino]-ethyl}-phenoxy)-2-methyl-propionate]
> 10 | CCCCCCCn1nc(NCCc2ccc(OC(C)(C)C(=O)OCC)cc2)c(=O)n(CCCCCCC)c1=O [Example 108, Ethyl 2-{4-[2-(2,4-diheptyl-3,5-dioxo-2,3,4,5-tetrahydro-[1,2,4]triazin-6-ylamino)-ethyl]-phenoxy}-2-methyl-propionate]
~10 | CCOC(=O)C(C)(C)Oc1ccc(CCN(CCc2ccccc2)c2nn(C)c(=O)n(C)c2=O)cc1 [Example 114, Ethyl 2-(4-{2-[(2,4-dimethyl-3,5-dioxo-2,3,4,5-tetrahydro-[1,2,4]triazin-6-yl)-phenethyl-amino]-ethyl}-phenoxy)-2-methyl-propionate]

Source: US7713971B2, “1,2,4-triazine derivatives, preparation and use thereof in human therapy” (Pierre Fabre Medicament, priority 2005, dated 2010)
